One assay deals with MCP-1. The following applies: for MCP-1: PBMC, LPS 100 ng/ml, 24 hours, supernatant. As to the method: (§1) The capability of bindarit to reduce production of MCP-1 by leucocytes (PBMC) stimulated by LPS was evaluated. White blood cells were isolated by centrifugation on a Ficoll gradient and then stimulated with LPS (100 ng/ml) for 24 hours in the presence or absence of scalar concentrations of bindarit. The supernatant fluid was collected at the end and levels of MCP-1 were measured by means of a specific immunoenzymatic test.

The test system of another assay is IL-8. The settings on record: for IL-8: PBMC, LPS 100 ng/ml, 24 hours, supernatant. As to the method: as §1
The subject of a further assay is mouse air pouch. The following applies: for Exudate / Leucocytes: bindarit 0.5% in diet for 18 days. As to the method:
The action of bindarit was studied in an experimental model in the mouse, the said model being characterized by production of MCP-1, cell infiltration and formation of exudate. Mice were fed ad libitum with a standard diet for rodents or with the same diet with addition of bindarit (0.5%) for 18 days. On the twelfth day, under ether anaesthesia, sterile air (5 ml) was injected under the dorsal skin of the mice to form a sac. On the fifteenth day, again under ether anaesthesia, further sterile air (5 ml) was injected into the pre-formed sac. On the eighteenth day, a sterile physiological solution (1 ml) was injected into the sac thus obtained, or an irritant (1 ml). The said irritant was carrageen (1%) or IL-1 (40 ng). After 5 hours for IL-1, or 24 hours for carrageen, the mice were sacrificed by asphyxia with CO2. The exudate which had developed was collected and used for the leucocyte count and for measurement of the mediators produced.

[1] abbreviates: IL-1, share of cells in exudate, bindarit 0.5% in diet.

Each structure is given as a SMILES string. Like-named read-outs stand apart in the source and are kept apart here.

With `CC(C)(OCc1nn(Cc2ccccc2)c2ccccc12)C(=O)O` [Bindarit], the values for the MCP-1 in the assay with MCP-1 (bindarit 25 μg/ml), with MCP-1 (bindarit 50 μg/ml) and in the assay with MCP-1 (bindarit 100 μg/ml) were 1.5 ± 0.38 ng/mL, 1.6 ± 0.18 ng/mL and 0.8 ± 0.04 ng/mL, respectively. The “production of MCP-1 induced by LPS (in words)” value in the assay on MCP-1 (summary of Table 1) is given as “significantly reduces”. Further, the IL-8 in the assay on IL-8 (bindarit 25 μg/ml) worked out at 30 ± 5.20 ng/mL; with IL-8 (bindarit 50 μg/ml) it was 37 ± 5.36 ng/mL; in the assay with IL-8 (bindarit 100 μg/ml), 27 ± 5.8 ng/mL. Moreover, in the assay with IL-8 (summary of Table 1), the “levels of IL-8 produced (in words)” value is “without substantially influencing”. Besides, the Exudate is 1.00 ± 0.01 mL with mouse air pouch (IL-1 (40 ng), 5 hours) and 0.90 ± 0.08 mL with mouse air pouch (carrageen (1%), 24 hours). For the same compound, the Leucocytes in the assay with mouse air pouch (IL-1 (40 ng), 5 hours) worked out at 7.5 ± 2.21; in the assay with mouse air pouch (carrageen (1%), 24 hours) it was 4.5 ± 0.64. In the assay with mouse air pouch (setting [1]), this compound showed a Monocytes of 6%. The compound also registered a Polymorphonucleates with mouse air pouch (setting [1]) of 94%. For the same compound, in the assay with mouse air pouch (summary of Table 2), the “number of infiltrated cells (leucocytes) (in words)” value is given as “significant reduction”. Besides, in the assay with mouse air pouch (summary of Table 2), the “volume of exudate collected (in words)” value is given as “without presenting a reduction”. In addition, the “percentage of monocytes attracted in the sac (in words)” value in the assay on mouse air pouch (summary of Table 3) is on record as “reduction”.

For the origin of these results see patent publication US6534534B1, “Pharmaceutical composition active in reducing production of MCP-1 protein” (Aziende Chimiche Riunite Angelini Francesco A.C.R.A.F. …, priority 1997, dated 2003).
